Data as given in ChEMBL document CHEMBL4823254, “Tetrahydroquinoline-Capped Histone Deacetylase 6 Inhibitor SW-101 Ameliorates Pathological Phenotypes in a Charcot-Marie-Tooth Type 2A Mouse Model” (J Med Chem, 2021).
The source made the active and inactive calls. No cut-off for these calls is given here.

Tests used:
[1] = biological target: T1, Protein deacetylase HDAC6 (Mus musculus) (UniProt Q9Z2V5); test: In vivo inhibition of HDAC6 in wild type mouse assessed as increase in alpha-tubulin acetylation in sciatic nerve tissue at 10 to 20 mg/kg, ip measured after 48 hrs by immunoblot analysis; assay type: functional, organism-based; conditions: dose 10-20 mg/kg
T1 sequence (whole entry): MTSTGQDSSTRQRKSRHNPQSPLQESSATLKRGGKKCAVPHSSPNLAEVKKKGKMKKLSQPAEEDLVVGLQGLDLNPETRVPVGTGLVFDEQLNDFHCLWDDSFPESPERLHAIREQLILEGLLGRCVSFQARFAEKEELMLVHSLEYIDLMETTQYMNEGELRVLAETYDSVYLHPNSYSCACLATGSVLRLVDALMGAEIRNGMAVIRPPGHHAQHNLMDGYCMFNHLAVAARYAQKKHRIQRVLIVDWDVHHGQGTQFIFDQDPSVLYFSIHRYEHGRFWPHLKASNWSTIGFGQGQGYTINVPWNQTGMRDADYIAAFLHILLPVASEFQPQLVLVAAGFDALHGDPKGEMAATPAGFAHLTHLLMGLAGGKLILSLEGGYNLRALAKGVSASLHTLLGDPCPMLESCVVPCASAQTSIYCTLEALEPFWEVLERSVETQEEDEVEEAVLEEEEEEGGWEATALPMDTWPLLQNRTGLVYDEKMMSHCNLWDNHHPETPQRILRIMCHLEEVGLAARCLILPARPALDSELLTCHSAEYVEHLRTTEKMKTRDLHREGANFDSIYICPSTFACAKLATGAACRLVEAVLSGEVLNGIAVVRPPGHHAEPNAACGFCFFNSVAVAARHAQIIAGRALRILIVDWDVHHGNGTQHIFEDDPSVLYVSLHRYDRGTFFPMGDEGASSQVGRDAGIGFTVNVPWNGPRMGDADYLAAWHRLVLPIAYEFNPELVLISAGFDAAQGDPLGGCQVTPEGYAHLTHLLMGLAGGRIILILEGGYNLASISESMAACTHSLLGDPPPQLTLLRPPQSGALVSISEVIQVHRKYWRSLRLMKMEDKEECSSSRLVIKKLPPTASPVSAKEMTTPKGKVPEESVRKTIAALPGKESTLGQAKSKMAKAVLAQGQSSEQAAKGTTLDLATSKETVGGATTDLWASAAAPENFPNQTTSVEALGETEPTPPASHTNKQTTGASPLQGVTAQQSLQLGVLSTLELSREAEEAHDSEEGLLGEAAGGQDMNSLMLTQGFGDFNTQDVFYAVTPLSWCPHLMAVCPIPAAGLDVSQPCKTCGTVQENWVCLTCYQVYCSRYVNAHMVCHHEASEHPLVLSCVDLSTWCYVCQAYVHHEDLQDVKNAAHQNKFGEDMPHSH

[2] = biological target: T2, Histone deacetylase 8 (Homo sapiens, UniProt Q9BY41)
T2 sequence (Q9BY41 whole entry): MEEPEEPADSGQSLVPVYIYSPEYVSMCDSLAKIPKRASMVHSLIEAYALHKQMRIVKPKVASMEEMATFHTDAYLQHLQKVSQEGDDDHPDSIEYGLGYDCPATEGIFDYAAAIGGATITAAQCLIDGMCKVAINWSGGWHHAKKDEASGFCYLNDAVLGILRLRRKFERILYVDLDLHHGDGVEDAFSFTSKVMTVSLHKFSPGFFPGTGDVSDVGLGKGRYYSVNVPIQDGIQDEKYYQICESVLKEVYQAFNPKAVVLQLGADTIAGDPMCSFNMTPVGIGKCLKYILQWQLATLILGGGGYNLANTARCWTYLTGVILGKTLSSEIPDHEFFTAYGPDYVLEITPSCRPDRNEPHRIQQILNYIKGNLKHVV
Description: Inhibition of recombinant human HDAC8 using Boc-Lys(TFA)-AMC as substrate preincubated for 10 mins followed by substrate addition and measured after 30 mins by fluorescence-based assay

[3] = biological target: Histone deacetylase 1 (Homo sapiens, UniProt Q13547)
Description: Inhibition of recombinant human HDAC1 using Ac-GAK(Ac)-AMC as substrate preincubated for 10 mins followed by substrate addition and measured after 30 mins by fluorescence-based assay

[4] = Cmax in C57BL/6J mouse brain at 15 mg/kg, ip; assay type: ADME, organism-based; parameters: route intraperitoneal, dose 15 mg/kg
[5] = biological target: Histone deacetylase 3 (Homo sapiens, UniProt O15379); test: Inhibition of recombinant human HDAC3 using Ac-GAK(Ac)-AMC as substrate preincubated for 10 mins followed by substrate addition and measured after 30 mins by fluorescence-based assay
[6] = biological target: T1, Protein deacetylase HDAC6 (Mus musculus); test: (§1) In vivo inhibition of HDAC6 in hMFN2-induced CMT2A transgenic mouse model assessed as increase in acetylated tubulin in distal sciatic nerve tissue at 20 mg/kg, ip qd administered for 22 weeks by Western blot analysis; assay type: functional, organism-based
[7] = Unbound AUC (0 to infinity) in C57BL/6J mouse plasma at 15 mg/kg, ip; assay type: ADME, organism-based; conditions: in vivo
[8] = Half life in C57BL/6J mouse brain at 15 mg/kg, ip; assay type: ADME, organism-based
[9] = tested on: Mus musculus; test: Neuroprotective activity in hMFN2-induced CMT2A transgenic mouse model assessed as increase in paw withdrawal latency at 20 mg/kg, ip qd by von Frey test; assay type: functional, organism-based
[10] = Toxicity in mouse assessed as adverse effect at 10 to 20 mg/kg, ip administered for 3 days every 12 hrs; assay type: organism-based; conditions: in vivo, 72 h, dose 10-20 mg/kg, time 3 day
[11] = Genotoxicity in Salmonella typhimurium TA1537 at 5 to 100 uM in presence of liver S9 fraction by Ames test; assay type: toxicity; conditions: salmonella enterica subsp. enterica serovar typhimurium, s9, 100 µM; dose 5-100 µM
[12] = biological target: T1, Protein deacetylase HDAC6 (Mus musculus); test: as §1, with “weeks when treated prior with compound dissolved in PBS/PEG400/Tween80/EtOH (50/35/10/5) wt% as vehicle” for “weeks”; assay type: functional, organism-based
[13] = Total AUC (0 to infinity) in C57BL/6J mouse plasma at 15 mg/kg, ip; assay type: ADME, organism-based; parameters: route intraperitoneal, time AUCmax, dose 15 mg/kg

Sequence of Histone deacetylase 3 (O15379 whole entry): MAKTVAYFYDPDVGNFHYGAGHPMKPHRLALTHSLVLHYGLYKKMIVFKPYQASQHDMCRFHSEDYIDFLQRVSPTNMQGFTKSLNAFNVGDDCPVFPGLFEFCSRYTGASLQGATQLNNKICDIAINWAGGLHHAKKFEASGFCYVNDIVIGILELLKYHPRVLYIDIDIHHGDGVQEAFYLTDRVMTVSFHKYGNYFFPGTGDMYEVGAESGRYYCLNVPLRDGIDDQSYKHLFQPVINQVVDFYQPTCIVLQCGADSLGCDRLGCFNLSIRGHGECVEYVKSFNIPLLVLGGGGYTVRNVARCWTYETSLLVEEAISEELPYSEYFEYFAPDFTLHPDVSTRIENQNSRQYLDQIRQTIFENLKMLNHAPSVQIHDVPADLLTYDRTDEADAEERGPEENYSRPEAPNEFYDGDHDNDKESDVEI
Sequence of Histone deacetylase 1 (Q13547 whole entry): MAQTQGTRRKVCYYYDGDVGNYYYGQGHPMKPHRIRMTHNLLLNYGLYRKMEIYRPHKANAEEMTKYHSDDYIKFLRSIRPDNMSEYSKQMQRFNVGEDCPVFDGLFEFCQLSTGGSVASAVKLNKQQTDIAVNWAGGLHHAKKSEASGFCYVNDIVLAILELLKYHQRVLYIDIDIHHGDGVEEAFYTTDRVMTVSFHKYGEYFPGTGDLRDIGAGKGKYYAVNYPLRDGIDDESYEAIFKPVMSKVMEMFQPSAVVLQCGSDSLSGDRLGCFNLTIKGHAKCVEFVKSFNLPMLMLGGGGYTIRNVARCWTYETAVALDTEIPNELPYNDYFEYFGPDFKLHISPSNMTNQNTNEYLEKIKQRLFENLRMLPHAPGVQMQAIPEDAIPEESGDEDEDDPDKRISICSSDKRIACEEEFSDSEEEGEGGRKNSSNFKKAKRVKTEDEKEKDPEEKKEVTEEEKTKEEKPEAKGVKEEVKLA

Compound: NC(=O)c1ccc2c(c1)CCCN2Cc1ccc(C(=O)NO)cc1
- inhibition [1]: inactive
- IC50 [2]: 0.651 µM
- IC50 [3]: 0.356 µM
- Cmax [4]: 223 ng/mL
- IC50 [5]: 0.235 µM
- inhibition [6]: Active
- fAUC [7]: 421 ng·h/mL
- half-life [8]: 2.9 h
- Activity [9]: Active
- Activity [10]: Non-Toxic
- Activity [11]: Non-Toxic
- inhibition [12]: inactive
- AUC(0-inf) [13]: 1750 ng·h/mL
